Measured values reported in PubChem BioAssay (NCI).
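The compound was tested at five concentrations on cells cultured in 96-well plates, with a 48-hour exposure period. GI50 = concentration required for 50% inhibition of growth. TGI marks complete inhibition of growth.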

Legend:
Assay in all cases: NCI anticancer screen, dose series, 48 h
[1] = test system: CCRF-CEM leukemia
[2] = test system: SF-539 CNS
[3] = test system: K-562 leukemia
[4] = test system: RPMI-8226 leukemia
[5] = test system: U251 CNS
[6] = test system: DU-145 prostate
[7] = test system: RXF 393 renal
[8] = test system: HOP-92 NSCLC
[9] = test system: SW-620 colon
[10] = test system: MCF7 breast
[11] = test system: SNB-75 CNS
[12] = test system: OVCAR-3 ovarian
[13] = test system: UACC-62 melanoma
[14] = test system: A549 NSCLC
[15] = test system: SR leukemia
[16] = test system: HCT-15 colon
[17] = test system: TK-10 renal
[18] = test system: SF-268 CNS
[19] = test system: OVCAR-4 ovarian
[20] = test system: PC-3 prostate
[21] = test system: HOP-62 NSCLC
[22] = test system: NCI-H460 lung
[23] = test system: EKVX NSCLC
[24] = test system: T-47D breast
[25] = test system: SK-MEL-28 melanoma
[26] = test system: SK-OV-3 ovarian
[27] = test system: HCT-116 colon
[28] = test system: HL-60(TB) leukemia
[29] = test system: NCI/ADR-RES ovarian
[30] = test system: SK-MEL-5 melanoma
[31] = test system: SNB-19 CNS
[32] = test system: IGROV1 ovarian
[33] = test system: NCI-H522 lung
[34] = test system: HT29 colon
[35] = test system: SF-295 CNS
[36] = test system: BT-549 breast
[37] = test system: HCC-2998 colon
[38] = test system: SK-MEL-2 melanoma
[39] = test system: NCI-H226 lung
[40] = test system: MDA-MB-231 breast
[41] = test system: A498 renal
[42] = test system: LOX IMVI melanoma
[43] = test system: UACC-257 melanoma
[44] = test system: CAKI-1 renal
[45] = test system: OVCAR-8 ovarian
[46] = test system: MDA-MB-435
[47] = test system: NCI-H23 lung
[48] = test system: OVCAR-5 ovarian
[49] = test system: M14 melanoma
[50] = test system: COLO 205 colon
[51] = test system: HS 578T breast
[52] = test system: MOLT-4 leukemia
[53] = test system: 786-0 renal
[54] = test system: ACHN renal
[55] = test system: SN12C renal
[56] = test system: UO-31 renal
[57] = test system: KM12 colon
[58] = test system: MALME-3M melanoma

## C[C@@H](CCO)OC1OC(COC(=O)C(C)(C)C)C(OC(=O)C(C)(C)C)C(OC(=O)C(C)(C)C)C1OC(=O)C(C)(C)C (stereo not given in full)
[1]
  TGI: > 100 µM
[2]
  TGI: > 100 µM
[3]
  TGI: > 100 µM
[4]
  TGI: 81.8 µM
[5]
  TGI: > 100 µM
[6]
  TGI: > 100 µM
[7]
  TGI: 61 µM
[8]
  TGI: > 100 µM
[9]
  TGI: > 100 µM
[10]
  TGI: > 100 µM
[11]
  TGI: > 100 µM
[12]
  TGI: > 100 µM
[13]
  TGI: > 100 µM
[14]
  TGI: > 100 µM
[15]
  TGI: > 100 µM
[16]
  TGI: > 100 µM
[17]
  TGI: > 100 µM
[18]
  TGI: > 100 µM
[19]
  TGI: > 100 µM
[20]
  TGI: > 100 µM
[21]
  TGI: > 100 µM
[22]
  TGI: 36.6 µM
[23]
  TGI: > 100 µM
[24]
  TGI: > 100 µM
[25]
  TGI: > 100 µM
[26]
  TGI: > 100 µM
[27]
  TGI: > 100 µM
[28]
  TGI: 62.5 µM
[29]
  TGI: > 100 µM
[30]
  TGI: 58.1 µM
[31]
  TGI: > 100 µM
[32]
  TGI: > 100 µM
[33]
  TGI: 95.7 µM
[34]
  TGI: 35.7 µM
[35]
  TGI: 76.7 µM
[36]
  TGI: > 100 µM
[37]
  TGI: 31.4 µM
[38]
  TGI: > 100 µM
[39]
  TGI: > 100 µM
[40]
  TGI: 25.9 µM
[41]
  TGI: > 100 µM
[42]
  TGI: > 100 µM
[43]
  TGI: > 100 µM
[44]
  TGI: > 100 µM
[45]
  TGI: > 100 µM
[46]
  TGI: > 100 µM
[47]
  TGI: > 100 µM
[48]
  TGI: > 100 µM
[49]
  TGI: > 100 µM
[50]
  TGI: > 100 µM
[51]
  TGI: > 100 µM
[52]
  TGI: > 100 µM
[53]
  TGI: > 100 µM
[54]
  TGI: > 100 µM
[55]
  TGI: > 100 µM

## Cc1cc2c(-c3nc4ccccn4c3NC34CC5CC(CC(C5)C3)C4)c(O)c(O)cc2c(O)c1-c1c(C)cc2c(-c3nc4ccccn4c3NC34CC5CC(CC(C5)C3)C4)c(O)c(O)cc2c1O
[1]
  GI50: 0.115 µM
  TGI: > 25 µM
[2]
  GI50: 0.671 µM
  TGI: 2.98 µM
[3]
  GI50: 0.152 µM
  TGI: 4.93 µM
[4]
  GI50: 0.355 µM
  TGI: > 25 µM
[5]
  GI50: 0.106 µM
  TGI: 3.3 µM
[7]
  GI50: 0.464 µM
  TGI: 2.63 µM
[8]
  GI50: 0.616 µM
  TGI: 1.88 µM
[9]
  GI50: 0.881 µM
  TGI: > 25 µM
[10]
  GI50: 0.175 µM
  TGI: 4.28 µM
[11]
  GI50: 1.04 µM
  TGI: 19.1 µM
[12]
  GI50: 0.617 µM
  TGI: 8.3 µM
[13]
  GI50: 0.521 µM
  TGI: 1.91 µM
[56]
  GI50: 0.657 µM
  TGI: 4.16 µM
[14]
  GI50: 0.255 µM
  TGI: > 25 µM
[15]
  GI50: 0.854 µM
  TGI: 4.86 µM
[16]
  GI50: 0.466 µM
  TGI: > 25 µM
[17]
  GI50: 0.794 µM
  TGI: > 25 µM
[18]
  GI50: 0.239 µM
  TGI: 6.78 µM
[19]
  GI50: 0.728 µM
  TGI: > 25 µM
[20]
  GI50: 0.231 µM
  TGI: 11.9 µM
[21]
  GI50: 0.724 µM
  TGI: > 25 µM
[22]
  GI50: 0.0903 µM
  TGI: 2.1 µM
[23]
  GI50: 0.454 µM
  TGI: > 25 µM
[24]
  GI50: 0.187 µM
  TGI: 2.49 µM
[25]
  GI50: 0.459 µM
  TGI: 4.69 µM
[26]
  GI50: 0.749 µM
  TGI: 2.3 µM
[27]
  GI50: 0.0889 µM
  TGI: 6.22 µM
[28]
  GI50: 0.789 µM
  TGI: 11.5 µM
[29]
  GI50: 1.05 µM
  TGI: > 25 µM
[30]
  GI50: 0.564 µM
  TGI: 1.51 µM
[31]
  GI50: 0.214 µM
  TGI: 3.99 µM
[32]
  GI50: 0.883 µM
  TGI: > 25 µM
[33]
  GI50: 0.613 µM
  TGI: 3.54 µM
[57]
  GI50: 0.11 µM
  TGI: 11.7 µM
[34]
  GI50: 0.788 µM
  TGI: > 25 µM
[35]
  GI50: 0.262 µM
  TGI: 2.78 µM
[36]
  GI50: 0.105 µM
  TGI: 5.96 µM
[37]
  GI50: 1.13 µM
  TGI: > 25 µM
[38]
  GI50: 0.802 µM
  TGI: 6.25 µM
[39]
  GI50: 0.929 µM
  TGI: 5.98 µM
[40]
  GI50: 0.763 µM
  TGI: 11.4 µM
[41]
  GI50: 0.817 µM
  TGI: > 25 µM
[58]
  GI50: 0.574 µM
  TGI: > 25 µM
[42]
  GI50: 0.412 µM
  TGI: 3.38 µM
[43]
  GI50: 1 µM
  TGI: > 25 µM
[45]
  GI50: 0.871 µM
  TGI: > 25 µM
[46]
  GI50: 0.552 µM
  TGI: > 25 µM
[47]
  GI50: 0.137 µM
  TGI: 3.09 µM
[48]
  GI50: 0.922 µM
  TGI: > 25 µM
[50]
  GI50: 0.626 µM
  TGI: 4.77 µM
[51]
  GI50: 0.85 µM
  TGI: 16.2 µM
[52]
  GI50: 0.11 µM
  TGI: 10.4 µM
[53]
  GI50: 0.932 µM
  TGI: 5.09 µM
[54]
  GI50: 0.785 µM
  TGI: 2.88 µM
[55]
  GI50: 0.716 µM
  TGI: > 25 µM
